From ChEMBL document CHEMBL1201862, “PubChem BioAssay data set” (2004)
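In this assay, cells in 96-well plates receive the compound at five concentrations for 48 hours. Endpoints are linearly interpolated between the surrounding concentrations. GI50: concentration for 50% inhibition of growth.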 Active and inactive are the calls of the source. Rule as the data show it: active = GI50 up to about 1.1 µM and inactive = higher.

Tests used:
Assay in all cases: NCI anticancer screen, dose series, 48 h
CAKI-1 = tested on: CAKI-1
CCRF-CEM = tested on: CCRF-CEM
COLO 205 = tested on: COLO 205
HCT-15 = tested on: HCT-15
HOP-62 = tested on: HOP-62
LOX IMVI = tested on: LOX IMVI
NCI-H522 = tested on: NCI-H522
OVCAR-3 = tested on: OVCAR-3
SF-295 = tested on: SF-295
SK-MEL-28 = tested on: SK-MEL-28
SN12C = tested on: SN12C
SW-620 = tested on: SW-620
TK-10 = tested on: TK-10
UACC-62 = tested on: UACC-62
EKVX = tested on: EKVX
HOP-92 = tested on: HOP-92
SR = tested on: SR

Structure (SMILES)	GI50 (CAKI-1)	GI50 (CCRF-CEM)	GI50 (COLO 205)	GI50 (HCT-15)	GI50 (HOP-62)	GI50 (LOX IMVI)	GI50 (NCI-H522)	GI50 (OVCAR-3)	GI50 (SF-295)	GI50 (SK-MEL-28)	GI50 (SN12C)	GI50 (SW-620)	GI50 (TK-10)	GI50 (UACC-62)	GI50 (EKVX)	GI50 (HOP-92)	GI50 (SR)
COC(OC)c1cccc2c1C(=O)CCC1(CC2)OCCCCO1	> 100 µM (inactive)	> 100 µM (inactive)	> 100 µM (inactive)	> 100 µM	> 100 µM (inactive)	> 100 µM (inactive)	> 100 µM (inactive)	> 100 µM (inactive)	> 100 µM (inactive)	> 100 µM (inactive)	> 100 µM (inactive)	> 100 µM (inactive)	> 100 µM (inactive)	> 100 µM (inactive)			
O=C1NC(=O)C2C(=O)NC(=O)C1C2c1c(Cl)cccc1Cl (centres undefined)	> 100 µM (inactive)	> 46.7 µM (inactive)	> 41.8 µM (inactive)	> 100 µM	> 100 µM (inactive)	> 43 µM (inactive)	> 77.1 µM (inactive)	> 100 µM (inactive)	> 100 µM (inactive)	> 100 µM (inactive)	> 83.6 µM (inactive)	> 31.3 µM (inactive)	> 100 µM (inactive)	> 100 µM (inactive)	> 100 µM (inactive)	> 100 µM (inactive)	> 100 µM (inactive)
CCC(=O)C(C)C1=Nc2nnc(CCCCCCCc3nnc4n3C(=O)C(C(C)C(=O)CC)=N4)n2C1=O (centres undefined)	> 100 µM (inactive)	> 100 µM (inactive)	> 100 µM (inactive)	> 100 µM	> 100 µM (inactive)	> 100 µM (inactive)	> 100 µM (inactive)	> 100 µM (inactive)	> 100 µM (inactive)	> 100 µM (inactive)	> 100 µM (inactive)	> 100 µM (inactive)	> 100 µM (inactive)	> 100 µM (inactive)	> 100 µM (inactive)	> 100 µM (inactive)	21.6 µM (inactive)
COC1(OC)CC2C(=O)N(Cc3ccccc3)C1C(S(=O)(=O)c1ccccc1)C2S(=O)(=O)c1ccccc1 (centres undefined)	13.8 µM (inactive)	2.91 µM (inactive)	4.53 µM (inactive)	3.62 µM	> 100 µM (inactive)	10.2 µM (inactive)	2.02 µM (inactive)	10.9 µM (inactive)	45.7 µM (inactive)	13.7 µM (inactive)	12.7 µM (inactive)	2.13 µM (inactive)	15.2 µM (inactive)	13.4 µM (inactive)		19.3 µM (inactive)	5.31 µM (inactive)
NC1=C(O)c2cccc3cccc(c23)C1=O	> 100 µM (inactive)	> 100 µM (inactive)	> 100 µM (inactive)	> 100 µM		> 100 µM (inactive)	> 100 µM (inactive)	> 100 µM (inactive)	> 100 µM (inactive)	> 100 µM (inactive)	> 100 µM (inactive)	> 100 µM (inactive)	> 100 µM (inactive)	> 100 µM (inactive)	> 100 µM (inactive)	> 100 µM (inactive)	
CC(=O)NNc1nc(C)c(C(=O)NNC(=O)C(=O)Nc2ccc(Cl)cc2Cl)s1	28.3 µM (inactive)	20.6 µM (inactive)	35.9 µM (inactive)	38.5 µM	38.5 µM (inactive)	33.7 µM (inactive)	19.5 µM (inactive)	19.6 µM (inactive)	42.1 µM (inactive)	39.9 µM (inactive)	45.6 µM (inactive)	22.2 µM (inactive)	74.3 µM (inactive)	25.2 µM (inactive)	40.1 µM (inactive)	25.9 µM (inactive)	
Cc1cccc(N2C(=O)C(=O)C(c3nc4ccccc4s3)C(=O)C2=O)c1C	> 100 µM (inactive)	35.7 µM (inactive)	> 100 µM (inactive)	> 100 µM	> 100 µM (inactive)	> 100 µM (inactive)	> 100 µM (inactive)	> 100 µM (inactive)	> 100 µM (inactive)	> 100 µM (inactive)	> 100 µM (inactive)	> 100 µM (inactive)	> 100 µM (inactive)	> 100 µM (inactive)	> 100 µM (inactive)	> 100 µM (inactive)	> 100 µM (inactive)
CC(=O)/C(=N\O)C(=O)Nc1ccc(Cl)cc1Cl	> 100 µM (inactive)	19.1 µM (inactive)	> 100 µM (inactive)	> 100 µM	> 100 µM (inactive)	> 100 µM (inactive)	97.9 µM (inactive)	> 100 µM (inactive)	> 100 µM (inactive)	> 100 µM (inactive)	> 100 µM (inactive)	> 100 µM (inactive)	> 100 µM (inactive)	> 100 µM (inactive)	> 100 µM (inactive)	> 100 µM (inactive)	
CC1(C)CC(c2c[nH]c3ccccc23)=CC2=Nc3ccccc3C21O (centres undefined)	48.8 µM (inactive)	> 100 µM (inactive)	> 100 µM (inactive)	> 100 µM	> 100 µM (inactive)	> 100 µM (inactive)	34.8 µM (inactive)	33.3 µM (inactive)	38.5 µM (inactive)	16.4 µM (inactive)	> 100 µM (inactive)	52.1 µM (inactive)	> 100 µM (inactive)	> 100 µM (inactive)	63.1 µM (inactive)	15 µM (inactive)	
O=C(Nc1ccccc1)Oc1ccccc1C1CCCCC1		19.5 µM (inactive)	15.8 µM (inactive)	16.6 µM	18.1 µM (inactive)	13.8 µM (inactive)		12.7 µM (inactive)	17.3 µM (inactive)	29.6 µM (inactive)	18.9 µM (inactive)	25.5 µM (inactive)	28.8 µM (inactive)	25.5 µM (inactive)	20.1 µM (inactive)	10.4 µM (inactive)	14.8 µM (inactive)
Cc1c(C(=O)C/C(=N/NC(=O)c2ccccc2O)C(=O)Nc2ccccc2C(C)C)[n+]([O-])c2ccccc2[n+]1[O-]	30.8 µM (inactive)	1.47 µM (inactive)	31.7 µM (inactive)	30.3 µM	> 100 µM (inactive)	32.1 µM (inactive)	20.9 µM (inactive)	25.8 µM (inactive)	56.9 µM (inactive)	69.7 µM (inactive)	43.8 µM (inactive)	35.4 µM (inactive)	> 100 µM (inactive)	20 µM (inactive)	47.4 µM (inactive)		
COc1cc([C@@H]2c3cc4c(cc3[C@@H](NC(=O)c3ccc(OC(C)=O)cc3)C3COC(=O)[C@@H]32)OCO4)cc(OC)c1O (some centres undefined)	1.92 µM (inactive)	0.213 µM (active)	10.2 µM (inactive)	9.95 µM	0.714 µM (active)	1.39 µM (inactive)	1.73 µM (inactive)	4.84 µM (inactive)	2.24 µM (inactive)	3.48 µM (inactive)	1 µM (active)	0.729 µM (active)	10.7 µM (inactive)	0.547 µM (active)	4.18 µM (inactive)	1.34 µM (inactive)	
C[C@H](NS(=O)(=O)c1ccc(NC(=O)c2ccccc2)cc1)C(=O)O	> 100 µM (inactive)	> 100 µM (inactive)	> 100 µM (inactive)	> 100 µM		> 100 µM (inactive)	> 100 µM (inactive)	> 100 µM (inactive)	> 100 µM (inactive)	> 100 µM (inactive)	> 100 µM (inactive)	> 100 µM (inactive)	> 100 µM (inactive)	> 100 µM (inactive)	> 100 µM (inactive)	> 100 µM (inactive)	
N#Cc1ccc(Oc2cccc(Oc3ccccc3)c2)cc1C#N	> 10 µM (inactive)	23.3 µM (inactive)	> 10 µM (inactive)	> 10 µM	> 10 µM (inactive)	> 10 µM (inactive)	14.2 µM (inactive)	75.2 µM (inactive)	76.2 µM (inactive)	61.7 µM (inactive)	> 10 µM (inactive)	> 100 µM (inactive)	> 10 µM (inactive)	> 10 µM (inactive)	37.5 µM (inactive)	> 10 µM (inactive)	> 10 µM (inactive)
CCC1CNC(=O)CC1CC(=O)OC (centres undefined)	> 100 µM (inactive)			> 100 µM	> 100 µM (inactive)	> 100 µM (inactive)	> 100 µM (inactive)	> 100 µM (inactive)		> 100 µM (inactive)	> 100 µM (inactive)	> 100 µM (inactive)	> 100 µM (inactive)	> 100 µM (inactive)	> 100 µM (inactive)	> 100 µM (inactive)	> 100 µM (inactive)
Cc1c(/C=C2\CC/C(=C\c3[nH]c(C(=O)OC(C)(C)C)c(C)c3C)C2=O)[nH]c(C(=O)OC(C)(C)C)c1C	> 100 µM (inactive)	> 100 µM (inactive)	> 100 µM (inactive)	> 100 µM	> 100 µM (inactive)	> 100 µM (inactive)	> 100 µM (inactive)	> 100 µM (inactive)	> 100 µM (inactive)		> 100 µM (inactive)	> 100 µM (inactive)	> 100 µM (inactive)	> 100 µM (inactive)	> 100 µM (inactive)	> 100 µM (inactive)	> 100 µM (inactive)
c1ccc2c(CNCCCCCCCCCCCCNCc3cccc4ccccc34)cccc2c1	1.92 µM (inactive)	1.26 µM (inactive)	> 100 µM (inactive)	1.66 µM	2.14 µM (inactive)	1.22 µM (inactive)	1.88 µM (inactive)	1.85 µM (inactive)	19.5 µM (inactive)	1.95 µM (inactive)	3.53 µM (inactive)	1.79 µM (inactive)	2.14 µM (inactive)	1.82 µM (inactive)	3.1 µM (inactive)	1.88 µM (inactive)	1.11 µM (active)
